In US12643913B2, “Mcl-1 inhibitor formulations” (AMGEN INC., priority 2020, dated 2026):
≈ marks a conversion by molar mass, not a printed value. Read-outs that look alike come from different tables or passages of the source.

Columns and labels:
[1] = Solubility of AMG 397 in common spray-drying solvents; assay type: physicochemical
Method: Solvent selection: The solubility of AMG 397 was measured in solvents commonly used for spray drying. […] Based on the solubility data, tetrahydrofuran (THF) was selected as a solvent for the initial spray drying-work and further work was conducted in DCM.
AMG 397 is known to form solvates with many solvents. The formation of a solvate can lead to precipitation from solution due to the lower solubility in the solvent. Care must be taken to select a solvent and concentration of AMG 397 which can be maintained for the duration of the spray-drying process. The solubility of AMG 397 was highest in DCM where concentrations >100 mg/mL were achieved. Both DCM and THF are ICH class II solvents with residual solvent limits of 600 and 720 ppm, respectively. Therefore, the residual solvent levels must be removed to below these levels during the secondary drying process.

[2] = Stability of AMG 397 in THF and DCM solution at 1 mg/mL, room temperature, amber and clear vials (peak area % at 280 nm); assay type: physicochemical; conditions: for Peak Area % (280 nm), AMG 397 peak RRT 1.00: 1 mg/mL, room temperature
Method: The stability of AMG 397 was assessed in both THF and DCM over 24 hours to cover the processing time in the solvent. The stability was assessed in both amber and clear glass vials to assess the impact of light on stability.
Light had little impact on degradation up to 72 hours in DCM.

Compound: CO[C@]1(CN2CCN3CCCC[C@@H]3C2)/C=C/C[C@H](C)[C@@H](C)S(=O)(=O)NC(=O)c2ccc3c(c2)N(C[C@@H]2CC[C@H]21)C[C@@]1(CCCc2cc(Cl)ccc21)CO3 [AMG 397, (1S,3′R,6′R,7′R,8′E,11'S,12′R)-6-chloro-7′-methoxy-11′,12′-dinethyl-7′-((9aR)-octahydro-2H-pyrido[1,2-a]pyrazin-2-ylmethyl)-3,4-dihydro-2H,15′H-spiro[naphthalene-1,22′-[20]oxa[13]thia[1,14]diazatetracyclo [14.7.2.0^3,6.0^19,24]pentacosa[8,16,18,24]tetraen]-15′-one 13′,13′-dioxide]
- solubility ([1]; Dichloromethane (DCM)): > 100000 µg/mL
- solubility ([1]; Tetrahydrofuran (THF)): 33500 µg/mL (≈ 43800 µM)
- solubility ([1]; acetone, organic solvent or mixture, read-out: Solubility): 370 µg/mL (≈ 483 µM)
- solubility ([1]; ethanol, organic solvent or mixture, read-out: Solubility): 150 µg/mL (≈ 196 µM)
- solubility ([1]; ethyl acetate, organic solvent or mixture, read-out: Solubility): 750 µg/mL (≈ 980 µM)
- solubility ([1]; methanol, organic solvent or mixture, read-out: Solubility): 90 µg/mL (≈ 118 µM)
- solubility at 24 h ([1]; organic solvent or mixture, thermodynamic from solid, THF, after 24 hours, extended stirring at room temperature, solid precipitated, read-out: Final solubility in THF): 33500 µg/mL (≈ 43800 µM)
- solubility ([1]; organic solvent or mixture, thermodynamic from solid, THF, before extended stirring, read-out: Solubility in THF, initially): > 50000 µg/mL
- solubility ([1]; organic solvent or mixture, DCM, concentrations achieved, read-out: Solubility in DCM): > 100000 µg/mL
- Solubility in THF in the presence of water ([1]; various ratios of THF-water): drops significantly
- solubility ([1]; water, read-out: Solubility): 7 µg/mL (≈ 9.14 µM)
- Peak Area % (280 nm), AMG 397 peak RRT 1.00 ([2]; DCM, 2 Hrs, Amber): 99.49%
- Peak Area % (280 nm), AMG 397 peak RRT 1.00 ([2]; DCM, 2 Hrs, Clear): 99.47%
- Peak Area % (280 nm), AMG 397 peak RRT 1.00 ([2]; DCM, 4 Hrs, Amber): 99.44%
- Peak Area % (280 nm), AMG 397 peak RRT 1.00 ([2]; DCM, 4 Hrs, Amber (second 4 Hrs column)): 99.52%
- Peak Area % (280 nm), AMG 397 peak RRT 1.00 ([2]; DCM, 24 Hrs, Amber): 99.44%
- Peak Area % (280 nm), AMG 397 peak RRT 1.00 ([2]; DCM, 24 Hrs, Clear): 99.48%
- Peak Area % (280 nm), AMG 397 peak RRT 1.00 ([2]; DCM, 72 Hrs, Amber): 99.13%
- Peak Area % (280 nm), AMG 397 peak RRT 1.00 ([2]; DCM, 72 Hrs, Clear): 98.78%
- Peak Area % (280 nm), AMG 397 peak RRT 1.00 ([2]; DCM, Initial): 99.52%
- Stability in DCM ([2]; DCM, up to 24 hours at room temperature): stable
- Peak Area % (280 nm), AMG 397 peak RRT 1.00 ([2]; THF, 2 Hrs, Amber): 99.41%
- Peak Area % (280 nm), AMG 397 peak RRT 1.00 ([2]; THF, 2 Hrs, Clear): 98.98%
- Peak Area % (280 nm), AMG 397 peak RRT 1.00 ([2]; THF, 4 Hrs, Amber): 99.51%
- Peak Area % (280 nm), AMG 397 peak RRT 1.00 ([2]; THF, 4 Hrs, Clear): 97.51%
- Peak Area % (280 nm), AMG 397 peak RRT 1.00 ([2]; THF, 24 Hrs, Amber): 98.62%
- Peak Area % (280 nm), AMG 397 peak RRT 1.00 ([2]; THF, 24 Hrs, Clear): 92.68%
- Peak Area % (280 nm), AMG 397 peak RRT 1.00 ([2]; THF, 72 Hrs, Amber): 97.20%
- Peak Area % (280 nm), AMG 397 peak RRT 1.00 ([2]; THF, 72 Hrs, Clear): 90.59%
- Peak Area % (280 nm), AMG 397 peak RRT 1.00 ([2]; THF, Initial): 99.52%
- Stability in THF ([2]; THF, presence of light accelerated degradation): unstable
